Source: patent US20200188394A1, “TREATMENT OF LIVER DISEASE” (UNIVERSITY OF NEWCASTLE UPON TYNE, priority 2016, published 2020)
“Also recorded” adds a separate entry of the source.

Key:
Type in all cases: cell-based, rat
hepatocytes [1] = experiment: Cell G6P / hexose 6-phosphate (H6P) determination in hepatocytes; conditions: for H6P concentration / glucose-6-phosphate concentration: hepatocytes; for H6P concentration: 5 or 10 mM DG with 5 mM glucose (FIG. 6B); for glucose-6-phosphate concentration: 2 hours, 10 nM insulin, 5, 15 or 25 mM glucose, 10 μM GKA vs glucose alone (FIG. 2B)
Procedure: (§1) Hepatocytes were isolated from male Wistar rats (body wt 200-300 g) (Envigo, Bicester, UK). Procedures conformed to Home Office Regulations. The hepatocytes were suspended in Minimum Essential Medium (MEM) 21430 (Life Technologies, GIBCO BRL, Grand Island, N.Y.) with 5% (v/v) calf serum (Life Technologies, GIBCO BRL, Grand Island, N.Y.) and seeded on gelatin-coated plates. After cell attachment (˜4 hours) the medium was replaced by serum-free medium containing 5 mM glucose, 10 nM dexamethasone, 1 nM insulin and experiments were started after ˜20 hours culture by challenge with media containing 5 mM glucose, 15 mM glucose or 25 mM glucose and other additions as indicated.
Hepatocytes were incubated for 1 or 2 hours in MEM containing 10 nM insulin and 5, 15, or 25 mM glucose with or without 10μM GKA 3-cyclopentyl-2-(4-methanesulfonylphenyl)-N-thiazol-2-yl-propionamide (RO 28-1675) (Axon MedChem BV, Groningen) for determination of glucose phosphorylation (nmol/2 h per mg) and cell G6P (nmol/mg protein).
(§2) Incubations with 2-deoxyglucose (DG) where carried out as described previously but with 5 or 10 mM DG with 5 mM glucose (5G) and with or without 2 μM S4048.
Medium containing the cultured hepatocytes was drained from cell culture plates and the plates were snap-frozen in liquid nitrogen and stored at −80° C. For H6P determination, cells were extracted in 2.5% sulphosalicylic acid for deproteinization (10,000g, 10 min) and the supernatants were then neutralized with KOH/KH^2PO4 (3 M/1 M) and metabolites assayed on the neutralized deproteinized extracts. For fructose 2,6-P2, cells were extracted in 0.15 M NaOH.
For G6P and H6P determination the assay procedure involved coupling of the dehydrogenation of G6P by glucose-6-phosphate dehydrogenase to the […] by the reduction of the molecule resazurin to resorufin by NADP measured by the […]. Standards of G6P (2 to 20 μM) were prepared in 2.5% sulphosalicylic acid and neutralized with KOH/KH2PO4 (3 M/1 M) as in samples for metabolite determination. Standards and samples (20 μl) were then assayed in a final reaction volume of 200 μI containing 50 mM triethanolamine (TEA, pH 7.6), 1.0 mM MgCl2, 100 μM NADP+, 10 μM resazurin, 0.1 U/ml G6PD, and 0.2 U/ml diaphorase. The mixtures were then incubated for 30 min at room temperature. Fluorescence at 590 nm was measured using excitation at 530 nm using a plate reader (M5E Molecular devices). Background fluorescence was corrected by subtracting the value of the no-G6P control from all sample readings and sample values were read off the linear standard curve determined from the G6P standards.
Metabolites are expressed as nmol/mg protein except for fructose 2,6-P2 which is expressed as pmol/mg of total cell protein determined by a Lowry assay.

G6pc mRNA = experiment: Relative G6pc mRNA expression in hepatocytes (real-time RT-PCR); conditions: for G6pc mRNA relative expression: 5 or 10 mM DG with 5 mM glucose (FIG. 6C); for relative expression of G6pc mRNA: 4 hours
Procedure: as §1
(§3) Incubations for mRNA analysis and fructose 2,6-bisphosphate were for 4 hrs in MEM with 5, 15, or 25 mM glucose with or without 10 nM insulin and with or without 2 mM fructose. In samples including GKA, 10 μM GKA RO 28-1675 was added.
as §2
(§4) RNA was extracted using TRIzol (Invitrogen) and cDNA was synthesized from 1 μg of RNA with MMLV (Promega). Real-time RT-PCR was performed in a total volume of 10 μl containing 50 ng of reverse transcribed RNA and 5 ng of forward and reverse primers using a Sybr-Green protocol (Promega) in a Roche Capillary Light Cycler. Relative mRNA levels (vs control) were calculated by the delta cycle threshold method.

Gck mRNA = experiment: Relative Gck mRNA expression in hepatocytes (real-time RT-PCR); conditions: for Gck mRNA relative expression: 5 or 10 mM DG with 5 mM glucose (FIG. 6D); for relative expression of Gck mRNA: 4 hours, listed as GKA
Procedure: as §1, §3, §2, §4

hepatocytes [2] = experiment: Glucose phosphorylation in hepatocytes ([2-3H]glucose to 3H2O); conditions: 2 hours, 10 nM insulin, 5, 15 or 25 mM glucose, 10 μM GKA vs glucose alone (FIG. 2A)
Procedure: as §1

hepatocytes [3] = experiment: Fructose 2,6-bisphosphate determination in hepatocytes; conditions: 4 hours, GKA with 15 mM glucose vs 5 mM and 15 mM glucose alone, without or with 10 nM insulin (FIG. 3A), listed as GKA
Procedure: as §1, §3

Pklr mRNA = experiment: Relative Pklr mRNA expression in hepatocytes (real-time RT-PCR); conditions: 4 hours, listed as GKA
Procedure: as §1, §3, §2
RNA was extracted using TRIzol (Invitrogen) and cDNA was synthesized from 1 μg of RNA with MMLV (Promega). […] Relative mRNA levels (vs control) were calculated by the delta cycle threshold method.

Structure (SMILES)	H6P concentration (hepatocytes [1])	H6P concentration (hepatocytes [1]; listed as 2DG)	G6pc mRNA relative expression (G6pc mRNA)	G6pc mRNA relative expression (G6pc mRNA; listed as 2DG)	Gck mRNA relative expression (Gck mRNA)	Gck mRNA relative expression (Gck mRNA; listed as 2DG)	fractional increase in G6P compared with fractional increase in metabolic flux (hepatocytes [1]; basal (5 mM) and moderate (15 mM) glucose, 10 μM GKA)	glucose-6-phosphate concentration (hepatocytes [1])	glucose-6-phosphate concentration (hepatocytes [1]; listed as GKA)	glucose phosphorylation (hepatocytes [2])	glucose phosphorylation (hepatocytes [2]; listed as GKA)	fructose 2,6-bisphosphate concentration (hepatocytes [3])	relative expression of Pklr mRNA (Pklr mRNA; 10 nM insulin, 5, 15 or 25 mM glucose, -/+ 10 μM GKA (FIG. 4B))	relative expression of Pklr mRNA (Pklr mRNA; GKA with 15 mM glucose vs 5 mM and 15 mM glucose alone (FIG. 3C))	relative expression of G6pc mRNA (G6pc mRNA; 10 nM insulin, 5, 15 or 25 mM glucose, -/+ 10 μM GKA (FIG. 4C), listed as GKA)	relative expression of G6pc mRNA (G6pc mRNA; GKA with 15 mM glucose vs 5 mM and 15 mM glucose alone (FIG. 3B))	relative expression of Gck mRNA (Gck mRNA; 10 nM insulin, 5, 15 or 25 mM glucose, -/+ 10 μM GKA (FIG. 4A))	relative expression of Gck mRNA (Gck mRNA; GKA with 15 mM glucose vs 5 mM and 15 mM glucose alone (FIG. 3D))
O=CC[C@@H](O)[C@H](O)[C@H](O)CO [DG, 2-deoxyglucose]	causes elevation in the cell hexose 6-phosphate (H6P) content	H6P concentration increases with increasing 2DG	does not cause induction of expression of G6pc mRNA	does not affect G6pc mRNA relative expression	repression of Gck mRNA	decrease in Gck mRNA expression												
CS(=O)(=O)c1ccc(C(CC2CCCC2)C(=O)Nc2nccs2)cc1 (stereo not drawn) [RO 28-1675, 3-cyclopentyl-2-(4-methanesulfonylphenyl)-N-thiazol-2-yl-propionamide]							greater	increased the concentration of G6P more than glucose alone	increases the cell concentration of G6P at all glucose concentrations	increased phosphorylation more than glucose alone	increases the rate of phosphorylation of glucose	increase in F-2,6-P2; also recorded: increases F-2,6-P2 more than 5 mM glucose and 15 mM glucose	induces the expression of both G6pc and Pklr mRNA; also recorded: increased relative expression of Pklr mRNA	increase in relative expression of both Pklr and G6pc mRNA; also recorded: increased relative expression of Pklr mRNA	induces the expression of both G6pc and Pklr mRNA; also recorded: increased relative expression of Pklr mRNA and G6pc mRNA at all glucose concentrations	increase in relative expression of both Pklr and G6pc mRNA	represses the relative expression of Gck; also recorded: able to reduce Gck expression; also recorded: reduced the relative expression of Gck mRNA at all glucose concentrations	decrease in relative expression of Gck mRNA; also recorded: decreased relative expression of Gck mRNA
